# Measurements as given in patent publication US20250144067A1, “PERSONALIZED STARVATION THERAPY FOR CANCER” (Faeth Therapeutics, Inc., priority 2021, published 2025).
# Where a name gives a salt, the structure may show the parent alone.
# Tests used:
# [1] = test system: NCI-H292 lung cancer cells; experiment: FDA drug screening, complete media vs cholesterol-free media without statin (TABLE 1); type: cell-based, human
# [2] = test system: NCI-H292 lung cancer cells; experiment: FDA drug screening, complete media vs cholesterol-free media with simvastatin (TABLE 2); type: cell-based, human; settings: for Cholesterol-free media + simvastatin (0.04 μM) / Complete Media: NCI-H292 cells
# [3] = Complete minus Cholesterol-free, >0 enhanced anti-cancer activity, about 0 neutral, <0 antagonist
# [4] = NCI-H292 cells, cholesterol-free media without statin, FDA drug library screen
# [5] = NCI-H292 cells, complete media, FDA drug library screen
# [6] = cholesterol-free media with simvastatin 0.04 μM, FDA drug library screen (TABLE 2)
# [7] = complete media, FDA drug library screen (TABLE 2)
# [8] = complete media minus cholesterol-free media + simvastatin (0.04 μM), >0 enhanced anti-cancer activity, about 0 neutral, <0 antagonist
# [9] = complete vs cholesterol-free media, >0 enhanced anti-cancer activity, about 0 neutral, <0 antagonist
# [10] = NCI-H292 cells, cholesterol-free media without statin
# [11] = complete vs cholesterol-free media, greater than 0 enhanced anti-cancer activity, about 0 neutral, below 0 antagonists
# [12] = FDA library drug in cholesterol-free media with simvastatin 0.04 μM
# [13] = FDA library drug in complete media
# [14] = complete media vs cholesterol-free media + simvastatin (0.04 μM), >0 enhanced anti-cancer activity, about 0 neutral, <0 antagonist
# [15] = complete vs cholesterol-free media, […]
# [16] = drug in cholesterol-free media with simvastatin 0.04 μM
# [17] = NCI-H292 cells, FDA drug library screen, cholesterol-free media without statin
# [18] = NCI-H292 cells, FDA drug library screen, complete media
# [19] = FDA drug library screen, cholesterol-free media with simvastatin 0.04 μM
# [20] = FDA drug library screen, complete media
# [21] = complete media minus cholesterol-free media + simvastatin (0.04 μM), […]
compound,measurement,setting,value
Cc1nccn1CC1CCc2c(c3ccccc3n2C)C1=O (stereo not shown) [Ondansetron],Difference,[1]; [3],−0.05
same,Cholesterol-free,[1]; [4],1.168
same,Complete,[1]; [5],1.123
same,Cholesterol-free media + simvastatin (0.04 μM),[2]; [6],1.019
same,Complete Media,[2]; [7],0.948
same,Difference,[2]; [8],−0.07
CCCCN(CCCC)CC(O)c1cc(Cl)cc2c1-c1ccc(Cl)cc1/C2=C/c1ccc(Cl)cc1 (stereo not shown) [Lumefantrine],Cholesterol-free,[1]; [4],0.9552
same,Difference,[1]; [9],0.22
same,Cholesterol-free media + simvastatin (0.04 μM),"[2]; cholesterol-free media with simvastatin 0.04 μM, cell growth value in FDA drug screen",0.8537
same,Complete Media,"[2]; complete media, cell growth value in FDA drug screen",0.9184
same,Difference,"[2]; complete media minus cholesterol-free media + simvastatin, >0 enhanced anti-cancer activity, about 0 neutral, <0 antagonist",0.06
CC(O)(P(=O)(O)O)P(=O)(O)O [Etidronic acid],Cholesterol-free,[1]; [10],1.196
same,Complete,"[1]; NCI-H292 cells, complete media",0.8527
same,Difference,[1]; [11],−0.34
same,Cholesterol-free media + simvastatin (0.04 μM),[2]; [6],0.8968
same,Complete Media,[2]; [7],0.9014
same,Difference,[2]; [8],0.00
Nc1cc(Cl)c(N=C2NCCN2)c(Cl)c1 [Apraclonidine (hydrochloride)],Complete,"[1]; NCI-H292 cells, complete media",1.213
same,Difference,[1]; [11],−0.41
same,Cholesterol-free media + simvastatin (0.04 μM),[2]; [12],1.345
same,Complete Media,[2]; [13],1.018
same,Difference,[2]; [14],−0.33
CCCCCCCCC(=O)NCc1ccc(O)c(OC)c1 [Nonivamide],Complete,"[1]; NCI-H292 cells, complete media",1.201
same,Difference,[1]; [15],−0.42
same,Cholesterol-free media + simvastatin (0.04 μM),"[2]; cholesterol-free media with simvastatin 0.04 μM, […]",1.059
same,Complete Media,"[2]; complete media, […]",1.139
same,Difference,"[2]; complete media minus cholesterol-free media + simvastatin, […]",0.08
Cc1nccn1CCC(C(N)=O)(c1ccccc1)c1ccccc1 [Imidafenacin],Cholesterol-free,[1]; [4],0.8368
same,Complete,[1]; [5],1.001
same,Difference,[1]; [9],0.16
same,Cholesterol-free media + simvastatin (0.04 μM),[2]; [6],1.409
same,Complete Media,[2]; [7],1.383
same,Difference,[2]; [8],−0.03
CC1(O)CCC(C(C)(C)O)CC1 (stereo not shown) [Terpin (hydrate)],Difference,[1]; [3],0.06
same,Cholesterol-free,[1]; [4],0.8684
same,Complete,[1]; [5],0.9288
same,Cholesterol-free media + simvastatin (0.04 μM),[2]; [16],1.474
same,Complete Media,[2]; drug in complete media,1.21
same,Difference,[2]; [14],−0.26
CC1=C(C(=O)OCCN(Cc2ccccc2)c2ccccc2)C(c2cccc([N+](=O)[O-])c2)C(P2(=O)OCC(C)(C)CO2)=C(C)N1.CCO.Cl (stereo not shown),Difference,"[1]; Complete minus Cholesterol-free, greater than 0 enhanced anti-cancer activity, about 0 neutral, below 0 antagonist",−0.15
same,Cholesterol-free,[1]; [17],0.9837
same,Complete,[1]; [18],0.8325
same,Cholesterol-free media + simvastatin (0.04 μM),[2]; [19],1.113
same,Complete Media,[2]; [20],1.012
same,Difference,[2]; [14],−0.10
Cc1ncc([N+](=O)[O-])n1CCOC(=O)c1ccccc1 [Metronidazole Benzoate],Difference,[1]; [3],−0.30
same,Cholesterol-free,[1]; [10],1.298
same,Complete,"[1]; NCI-H292 cells, complete media",1.001
same,Cholesterol-free media + simvastatin (0.04 μM),[2]; [19],1.104
same,Complete Media,[2]; [20],1
same,Difference,[2]; [14],−0.10
Cc1ccccc1N1C(=O)c2cc(S(N)(=O)=O)c(Cl)cc2NC1C (stereo not shown) [Metolazone],Difference,"[1]; Complete minus Cholesterol-free, greater than 0 enhanced anti-cancer activity, about 0 neutral, below 0 antagonists",−0.62
same,Cholesterol-free,[1]; NCI-H292 cells in cholesterol-free media without statin,1.469
same,Complete,[1]; NCI-H292 cells in complete media,0.8441
same,Cholesterol-free media + simvastatin (0.04 μM),[2]; [19],1.129
same,Complete Media,[2]; [20],0.9754
same,Difference,[2]; [14],−0.15
COC(=O)N[C@H](C(=O)N1CCC[C@H]1C(=O)Nc1ccc([C@@H]2CC[C@@H](c3ccc(NC(=O)[C@@H]4CCCN4C(=O)[C@@H](NC(=O)OC)C(C)C)cc3)N2c2ccc(C(C)(C)C)cc2)cc1)C(C)C [Ombitasvir],Difference,"[1]; Complete minus Cholesterol-free, […]",−0.17
same,Cholesterol-free,[1]; [17],1.001
same,Complete,[1]; [18],0.8331
same,Cholesterol-free media + simvastatin (0.04 μM),[2]; [6],0.6017
same,Complete Media,[2]; [7],0.5358
same,Difference,[2]; [21],−0.07
Catechin,Complete,"[1]; NCI-H292 cells, complete media",0.7264
same,Difference,[1]; [15],−0.38
same,Cholesterol-free media + simvastatin (0.04 μM),[2]; [6],1.661
same,Difference,[2]; [21],−0.02
O=C(O)CSc1nnc(Br)n1-c1ccc(C2CC2)c2ccccc12 [Lesinurad (sodium)],Cholesterol-free,[1]; [4],0.8857
same,Complete,[1]; [5],1.263
same,Difference,[1]; [9],0.38
same,Cholesterol-free media + simvastatin (0.04 μM),[2]; [19],0.8519
same,Complete Media,[2]; [20],0.7365
same,Difference,[2]; [14],−0.12
O=C(O)COCCN1CCN([C@H](c2ccccc2)c2ccc(Cl)cc2)CC1 [Levocetirizine (dihydrochloride)],Difference,[1]; [3],0.02
same,Cholesterol-free,[1]; [4],0.8691
same,Complete,[1]; [5],0.8901
same,Cholesterol-free media + simvastatin (0.04 μM),[2]; [16],1.115
same,Complete Media,[2]; drug in complete media,0.8515
same,Difference,[2]; [14],−0.26
Cc1ccccc1C(=O)Nc1ccc(C(=O)N2CCCC(O)c3cc(Cl)ccc32)c(C)c1 (stereo not shown) [Tolvaptan],Difference,[1]; [3],−0.06
same,Cholesterol-free,[1]; [4],0.8732
same,Complete,[1]; [5],0.8126
same,Cholesterol-free media + simvastatin (0.04 μM),[2]; [12],2.102
same,Complete Media,[2]; [13],1.367
same,Difference,[2]; [14],−0.73
